Laboratory results published in patent US8729088B2, “Toll-like receptor modulators and treatment of diseases” (The Regents of the University of California, priority 2009, dated 2014).
“Also recorded” adds a separate entry of the source. Blank lines part the entries; values can stand above or below the compound they belong to.

Assays:
C57BL/6 mice [1] = assay: In vivo evaluation of adverse effects of TLR7 conjugates; conditions: 10 nmoles per mouse with OVA
Method: Immunological reaction initiation (e.g. adjuvanticity) by TLR7 conjugates was also examined. Groups (n=5) of C57BL/6 mice were subcutaneously immunized with 20 μg ovalbumin (OVA) mixed with approximately 10 nmol of various TLR7 conjugates, on days 0 and 7, where 10 nmol is a dosage target for the TLR7 portion of the conjugate, and the actual amount will be dependent on the actual chemical formula of each conjugate. […] Sera were collected on days 0, 7, 14, 21, 28, 42 and 56. Mice immunized with saline or OVA mixed with vehicle served as controls. Mice were sacrificed on day 56 and the spleens were harvested for preparation of splenocytes and histological slides. Approximately 200 microliters of a 2.5×10^6/mL spleen cell stock were aliquoted into round-bottom tissue culture microtiter plates in triplicate in a total volume of 200 μl RPMI 1640 complete medium [RPMI1640 (Irvine Scientific, Irvine, Calif.) supplemented with 10% heat-inactivated FCS, 2 mM L-glutamine, and 100 U/mL penicillin/100 μg/mL streptomycin] and restimulated with either 100 μg/mL OVA or medium alone. […] Sections 5 μm thick were stained with hematoxylin and eosin (H&E) and evaluated under the microscope. […]
Therefore, as part of the experimental protocol, body weight and skin reaction (at site of injection) of the mice immunized, with lipid-TLR7 agonist conjugates, was monitored. […]

[2] = test system: C57BL/6 mice immunized with ovalbumin (OVA); assay: Adjuvanticity: subcutaneous immunization with OVA mixed with TLR7 conjugates; format: in vivo, mouse
Method: Each ELISA plate contained a titration of a previously quantitated serum to generate a standard curve. […] The various sera samples were tested at a 1:100 dilution.
Spleenocytes were prepared from the harvested spleens.
The efficiency of adjuvanticity was assessed by measurement of the levels and isotypes of the antigen-specific IgG that the vaccine induces, in particular IgG1 and IgG2 (Mosmann, T. R., and Coffman, R. L., ‘TH1 and TH2 cells: different patterns of lymphokine secretion lead to different functional properties’, Annual Review Immunology 7:145-73 (1989)). The groups of C57BL/6 mice (n=5 animals per group) were subcutaneously immunized with OVA (ovalbumin) mixed with TLR7 conjugates. […] Mice immunized with saline or OVA plus vehicle (0.1% DMSO) were used as negative controls.

TLR7 = molecular target: T1, TLR7 (Mus musculus, UniProt P58681); assay: Cytokine induction in BMDM from wild type and TLR7 deficient mice; format: cell-based; design: endogenous in cells; host or cells: primary BMDM from C57BL/6 mice; conditions: wild type BMDM
T1 sequence (P58681 27-1050): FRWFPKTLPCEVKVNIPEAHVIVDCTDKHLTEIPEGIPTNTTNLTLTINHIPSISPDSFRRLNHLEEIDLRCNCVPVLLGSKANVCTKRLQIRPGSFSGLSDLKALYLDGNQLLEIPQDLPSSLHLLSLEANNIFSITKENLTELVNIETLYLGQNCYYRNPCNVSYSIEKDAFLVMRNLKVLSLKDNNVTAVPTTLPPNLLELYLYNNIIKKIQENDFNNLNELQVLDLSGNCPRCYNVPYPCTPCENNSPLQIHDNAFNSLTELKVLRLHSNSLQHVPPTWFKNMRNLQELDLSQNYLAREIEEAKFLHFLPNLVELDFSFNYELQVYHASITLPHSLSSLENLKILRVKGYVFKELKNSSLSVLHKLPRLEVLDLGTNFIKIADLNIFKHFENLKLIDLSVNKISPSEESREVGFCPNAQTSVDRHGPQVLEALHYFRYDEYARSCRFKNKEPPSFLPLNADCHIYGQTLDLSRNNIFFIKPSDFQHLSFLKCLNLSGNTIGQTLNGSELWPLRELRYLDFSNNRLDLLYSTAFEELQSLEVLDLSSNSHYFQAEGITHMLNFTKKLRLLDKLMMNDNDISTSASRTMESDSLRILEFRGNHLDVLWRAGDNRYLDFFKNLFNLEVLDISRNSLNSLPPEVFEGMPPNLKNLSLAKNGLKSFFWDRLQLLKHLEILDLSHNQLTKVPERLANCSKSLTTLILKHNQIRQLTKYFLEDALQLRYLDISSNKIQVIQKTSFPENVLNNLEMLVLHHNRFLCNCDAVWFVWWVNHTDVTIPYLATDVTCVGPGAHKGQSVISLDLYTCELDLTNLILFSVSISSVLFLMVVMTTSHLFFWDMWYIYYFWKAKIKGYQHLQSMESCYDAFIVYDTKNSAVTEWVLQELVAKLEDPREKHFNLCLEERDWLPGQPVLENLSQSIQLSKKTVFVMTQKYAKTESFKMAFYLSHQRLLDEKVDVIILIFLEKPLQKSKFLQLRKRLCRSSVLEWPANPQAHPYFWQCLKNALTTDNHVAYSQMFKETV
Method: In vitro measurements of cytokine induction were performed using the mouse leukemic monocyte macrophage cell line, RAW264.7. […] BMDM were prepared from C57BL/6 and TLR7 deficient mice as described in Wu, C. C et al., (2007) “Immunotherapeutic activity of a conjugate of a Toll-like receptor 7 ligand”, Proc Natl Acad Sci USA 104, 3990-5.
In general, RAW264.7 cells or BMDM were incubated with various concentrations of conjugates for 18 hours at 37° C., 5% CO2 and culture supernatants were collected. The levels of cytokines (IL-6, IL-12 or TNF-α in the supernatants were determined by ELISA (BD Biosciences Pharmingen, La Jolla, Calif.) (Cho, H. J et al., “Immunostimulatory DNA-based vaccines induce cytotoxic lymphocyte activity by a T-helper cell-independent mechanism” [see comments], Nat Biotechnol 18, 509-14 (2000)), and the results presented in FIG. 2A-D. Data are mean±SEM of triplicates and are representative of three independent experiments. Minimum detection levels of these cytokines were 15 pg/mL.

Solubility observations = format: physicochemical
C57BL/6 mice [3] = assay: MOG induced experimental autoimmune encephalomyelitis (EAE)
Method: The effect of compound (8) on experimental autoimmune encephalomyelitis (EAE) was determined using C57BL/6 mice treated with myelin oligodendrocyte glycoprotein (MOG).
Treatment with MOG (or MOG peptides) may be used to induce EAE. Mice were treated with MOG protein for 6 days. On day 6 and onward (see FIG. 8), 50 nmoles of compound (8) or PBS were intravenously (i.v.) injected everyday. EAE clinical scores were used as a clinical metric for demyelination and were determined visually.
MOG protein was also used to evaluate potential adverse effect of various TLR7 conjugates, as described above. Evaluation of the results were by observation of various symptoms associated with MOG induced EAE (e.g., brain inflammation, demyelination of neurons and the like).

C57BL/6 mice [4] = assay: Serum transferred arthritis (K/BxN serum); format: in vivo, mouse
Method: The anti-inflammatory efficacy of TLR7 agonist-PEG conjugates was tested in mouse models of human inflammatory diseases (serum transfer arthritis, experimental allergic encephalomyelitis (EAE) (see above), and thioglycollate induced peritonitis).

C57BL/6 mice [5] = assay: Thioglycolate induced peritonitis (peritoneal neutrophil infiltration); conditions: for cell infiltration, particularly neutrophil, to the peritoneal cavity: three days
Method: Peritoneal cells were collected four hours after TG injection. Total cells were counted by haematocytometer and neutrophils were morphologically identified.
4 hours post TG injection total peritoneal cells were harvested and counted. Neutrophils were identified morphologically and counted.
One day after the last treatment, mice received intraperitoneal injection of 2 ml thioglycollate medium. […] Three hours after the thioglycollate injection, neutrophil infiltration to the peritoneum was evaluated.

[6] = test system: pro-inflammatory cytokines (IL-6, TNF-α) in sera; assay: In vivo kinetics of pro-inflammatory cytokine induction after intravenous injection; design: species or system mouse
Method: The pharmacokinetics of pro inflammatory cytokine induction by TLR7 conjugates was examined using 6- to 8-week old C57BL/6 mice. […] Blood samples were collected 2, 4, 6, 24 or 48 hours after injections. Sera were separated and kept at −20° C. until use.

[7] = 50 nmoles i.v. for three days before thioglycolate

agonist activity (IL-12, IL-6) (TLR7): active
dissolution in suitable solvents for testing (Solubility observations): difficulty in dissolution
Structure (SMILES): CCCCCCCC/C=C\CCCCCCCC(=O)OCC(COP(=O)(O)OCCNC(=O)c1ccc(Cn2c(=O)[nH]c3c(N)nc(OCCOC)nc32)cc1)OC(=O)CCCCCCC/C=C\CCCCCCCC (stereo not drawn) [Compound 6, 2-(4-((6-amino-2-(2-methoxyethoxy)-8-oxo-7H-purin-9(8H)-yl)methyl)benzamido)ethyl 2,3-bis(oleoyloxy)propyl phosphate]
average body weights versus mice injected saline (C57BL/6 mice [1]): No significant differences
onset of induction of anti-OVA antibodies ([2]; OVA mixed with conjugate, s.c., days 0 and 7): 14 days
OVA-specific IFNγ secretion by spleen cells ([2]; day 56 splenocytes restimulated with OVA): enhanced
anti-OVA IgG2a levels ([2]; serum, ELISA, days 0-56): continuously increased; also recorded: rapid elevation; also recorded: sustained and further accelerated levels

agonist activity (IL-12, IL-6) (TLR7): active
solubility in aqueous solution (Solubility observations): improves dramatically
Structure (SMILES): COCCOc1nc(N)c2nc(O)n(Cc3ccc(C(=O)NCCOCCOCCOCCOCCOCCOCCOCCOCCOCCOCCn4cc(CCC(=O)O)nn4)cc3)c2n1 [Compound 8, 3-(1-(1-(4-((6-amino-8-hydroxy-2-(2-methoxyethoxy)-9H-purin-9-yl)methyl)phenyl)-1-oxo-5,8,11,14,17,20,23,26,29,32-decaoxa-2-azatetratriacontan-34-yl)-1H-1,2,3-triazol-4-yl)propanoic acid]
EAE clinical score / severity of symptoms (C57BL/6 mice [3]; 50 nmoles i.v. every day from day 6, days 11-17): significantly reduces the severity of EAE symptoms
adverse reaction (C57BL/6 mice [3]; mouse, in vivo): no additional adverse reaction
paw swelling (C57BL/6 mice [4]; daily gavage): reduced paw swelling
paw swelling (C57BL/6 mice [4]; daily subcutaneous injection): reduced paw swelling
neutrophils recruited to the peritoneum (C57BL/6 mice [5]; [7]): reduction
total cells recruited to the peritoneum (C57BL/6 mice [5]; [7]): reduction
adverse reaction compared to TG (C57BL/6 mice [5]; mouse, in vivo): no additional adverse reaction
cell infiltration, particularly neutrophil, to the peritoneal cavity (C57BL/6 mice [5]; oral route): reduced cell infiltration
cell infiltration, particularly neutrophil, to the peritoneal cavity (C57BL/6 mice [5]; systemic (intravenous) route): reduced cell infiltration
IL-6 induction in serum ([6]; 200 nmol per animal i.v.): only a low level
TNFα induction in serum ([6]; 200 nmol per animal i.v., any point post injection): no significant induction
IL-6 or TNFα stimulating activity ([6]; FIGS. 4A-B): little or no IL-6 or TNFα stimulating activity
antagonistic activity ([6]; concluded from FIGS. 4A-B, 7A-B and 8): antagonistic activity under certain conditions

agonist activity (IL-12, IL-6) (TLR7): active
Structure (SMILES): CCCCCCCC/C=C\CCCCCCCC(=O)OCC(COP(=O)(O)OCCNC(=O)CCc1cn(CCOCCOCCOCCOCCOCCOCCOCCOCCOCCOCCNC(=O)c2ccc(Cn3c(O)nc4c(N)nc(OCCOC)nc43)cc2)nn1)OC(=O)CCCCCCC/C=C\CCCCCCCC (stereo not drawn) [Compound 9, 2-(3-(1-(1-(4-((6-amino-8-hydroxy-2-(2-methoxyethoxy)-9H-purin-9-yl)methyl)phenyl)-1-oxo-5,8,11,14,17,20,23,26,29,32-decaoxa-2-azatetratriacontan-34-yl)-1H-1,2,3-triazole-4-yl)propanamido)ethyl 2,3-bis(oleoyloxy)propyl phosphate]
Th1 response (IgG2a levels) ([2]; mouse, in vivo): minimal Th1 response
Th2 immune response (IgG1 levels) ([2]; mouse, in vivo): induce a Th2 immune response
